Test results as given in patent US20190389843A1, “PYRROLE mTORC INHIBITORS AND USES THEREOF” (Navitor Pharmaceuticals, Inc., priority 2016, published 2019).
Where a name gives a salt, the structure may show the parent alone.

Columns and labels:
[1] = test system: pAKT in MCF7 (measure of mTORC2 activity); experiment: AlphaLISA Ultra pAKT assay; type: cell-based; conditions: Homo sapiens, MCF7, 2 h, MCF-7 cells, 2 hours compound incubation
Description: (§1) Assay Protocol: • 1. […] 16,000˜20,000 cells will be seeded in 36 μL medium per well. • 2. Change the culture medium with fresh medium and incubate for another 2 hours. • 3. Add 12 μL (4×) compounds into the cell plate by HAMILTON. Final DMSO concentration is 0.5%. Incubate for 2 hours. • 4. Aspirate 38 μL by HAMILTON, 10 μL rest per well. • 5. Add 10 μL 2× lysis buffer using HAMILTON; total volume in wells is 20 μL. Allow cells to shake for 30 min. Cover plate by plastic foil and store plate at −80° C. up to analysis. • 6. […] Add 5 ul acceptor beads into assay plate and incubation for 2 hours • 8. Add 5 ul donor beads and incubation for 2 hours • 9. Count the plate by EnSpire Multimode Plate Reader

[2] = test system: pS6K1 in MCF7 (measure of mTORC1 activity); experiment: AlphaLISA Ultra pS6K1 assay; type: cell-based; conditions: Homo sapiens, MCF7, 2 h, MCF-7 cells, 2 hours compound incubation
Description: as §1, with “12,000˜16,000” for “16,000˜20,000”, “(4λ)” for “(4×)”

IC50 [1]	IC50 [2]	SMILES
> 10 µM	1000 to 3000 nM	Cc1c(CN2CCN(c3ccccc3C#N)CC2)cc(C(=O)N2CCN(c3cccnn3)CC2)n1C [Example I-16]
> 5 µM	10 to 1000 nM	C[C@H]1CN(c2cccc(F)c2C#N)CCN1C(=O)c1cc(CN2CCN(c3ccccc3Cl)CC2)cn1C [Example I-101, (S)-2-(4-(4-((4-(2-chlorophenyl)piperazin-1-yl)methyl)-1-methyl-1H-pyrrole-2-carbonyl)-3-methylpiperazin-1-yl)-6-fluorobenzonitrile]
> 10 µM	1000 to 3000 nM	Cn1cc(CN2CCC3(CCN(c4ccccc4Cl)C3)C2)cc1C(=O)N1CCN(c2ccc(F)cc2)CC1 (centres unmarked) [Example I-128]
> 1 µM	10 to 1000 nM	Cc1c(CN2CCN(c3ccccc3C#N)CC2)cc(C(=O)N2CCN(c3ccccc3)CC2)n1C [Example I-54]
> 5 µM	10 to 1000 nM	Cc1c(CN2CCN(c3ccccc3Cl)CC2)cc(C(=O)N2CCn3c(nc4ccccc43)C2)n1C [Example I-91, (4-((4-(2-chlorophenyl)piperazin-1-yl)methyl)-1,5-dimethyl-1H-pyrrol-2-yl)(3,4-dihydrobenzo[4,5]imidazo[1,2-a]pyrazin-2(1H)-yl)methanone]
> 10 µM	3000 to 10000 nM	Cn1cc(CN2CCN(c3ccccc3C#N)CC2)cc1C(=O)N1CCN(c2ccc(F)cc2)CC1 [Example I-73]
> 10 µM	1000 to 3000 nM	Cn1cc(CN2CCC(Nc3ccccc3Cl)CC2)cc1C(=O)N1CCN(c2ccc(F)cc2)CC1 [Example I-130]
> 10 µM	1000 to 3000 nM	Cc1c(CN2CCN(c3ccccc3Cl)CC2)cc(C(=O)N2CCn3nc(-c4ccccc4)cc3C2)n1C [Example I-81, (4-((4-(2-Chlorophenyl)piperazin-1-yl)methyl)-1,5-dimethyl-1H-pyrrol-2-yl)(2-phenyl-6,7-dihydropyrazolo[1,5-a]pyrazin-5(4H)-yl)methanone 2,2,2-trifluoroacetate]
> 10 µM	3000 to 10000 nM	Cn1cc(CN2CCN(c3ccccc3C(F)(F)F)CC2)cc1C(=O)N1CCN(c2ccccc2)CC1 [Example I-126, 1-{[1-Methyl-5-(4-phenylpiperazine-1-carbonyl)-1H-pyrrol-3-yl]methyl}-4-[2-(trifluoromethyl)phenyl]piperazine]
> 3 µM	1000 to 3000 nM	Cn1cc(CN2CCN(c3ccccc3Cl)CC2)cc1C(=O)N1CCN(c2cccc(C#N)c2)CC1 [Example I-138, 3-(4-(4-((4-(2-chlorophenyl)piperazin-1-yl)methyl)-1-methyl-1H-pyrrole-2-carbonyl)piperazin-1-yl)benzonitrile]
> 5 µM	10 to 1000 nM	Cc1c(CN2CCN(c3ccccc3Cl)CC2)cc(C(=O)N2CCN(c3cc(F)cc(F)c3)C[C@@H]2C)n1C [Example I-93, (S)-(4-((4-(2-chlorophenyl)piperazin-1-yl)methyl)-1,5-dimethyl-1H-pyrrol-2-yl)(4-(3,5-difluorophenyl)-2-methylpiperazin-1-yl)methanone]
> 10 µM	3000 to 10000 nM	C[C@@H]1CN(c2ccccc2)CCN1C(=O)c1cc(CN2CCN(c3ccccc3Cl)CC2)cn1C [Example I-137, (R)-(4-((4-(2-chlorophenyl)piperazin-1-yl)methyl)-1-methyl-1H-pyrrol-2-yl)(2-methyl-4-phenylpiperazin-1-yl)methanone]
> 3 µM	10 to 1000 nM	CCn1cc(CN2CCN(c3ccccc3Cl)CC2)cc1C(=O)N1CCN(c2ccccc2)CC1 [Example I-143]
> 10 µM	1000 to 3000 nM	Cc1c(C(C)N2CCN(c3ccccc3Cl)CC2)cc(C(=O)N2CCN(c3ccc(F)cc3)C[C@@H]2C)n1C (stereo partly drawn) [Example I-46, (4-(1-(4-(2-Chlorophenyl)piperazin-1-yl)ethyl)-1,5-dimethyl-1H-pyrrol-2-yl)((S)-4-(4-fluorophenyl)-2-methylpiperazin-1-yl)methanone]
> 3 µM	1000 to 3000 nM	Cc1ccccc1N1CCN(Cc2cc(C(=O)N3CCN(c4ccccc4)CC3)n(C)c2)CC1 [Example I-134, (1-methyl-4-((4-o-tolylpiperazin-1-yl)methyl)-1H-pyrrol-2-yl)(4-phenylpiperazin-1-yl)methanone]
> 10 µM	1000 to 3000 nM	Cn1cc(CN2CCN(c3ccc(F)cc3Cl)CC2)cc1C(=O)N1CCN(c2ccc(F)cc2)CC1 [Example I-127]

IC50 [1]	IC50 [2]	SMILES
> 10 µM	10 to 1000 nM	Cc1c(CN2CCN(c3ccccc3Cl)CC2)cc(C(=O)N2CCN(c3cccc(F)c3C#N)C[C@@H]2C)n1C [Example I-102, (S)-2-(4-(4-((4-(2-chlorophenyl)piperazin-1-yl)methyl)-1,5-dimethyl-1H-pyrrole-2-carbonyl)-3-methylpiperazin-1-yl)-6-fluorobenzonitrile]
> 5 µM	1000 to 3000 nM	Cc1c(CN2CCN(c3ccccc3Cl)CC2)cc(C(=O)N2CCN(c3cccc(N=[N+]=[N-])c3)C[C@@H]2C)n1C [Example I-104, (S)-(4-(3-azidophenyl)-2-methylpiperazin-1-yl)(4-((4-(2-chlorophenyl)piperazin-1-yl)methyl)-1,5-dimethyl-1H-pyrrol-2-yl)methanone]
> 3 µM	10 to 1000 nM	Cc1c(CN2CCN(c3ccccc3C#N)CC2)cc(C(=O)N2CCN(c3cccc(C#N)n3)CC2)n1C [Example I-43]
> 5 µM	10 to 1000 nM	C[C@H]1CN(c2cc(F)cc(F)c2)CCN1C(=O)c1cc(CN2CCN(c3ccccc3Cl)CC2)cn1C [Example I-94, (S)-(4-((4-(2-chlorophenyl)piperazin-1-yl)methyl)-1-methyl-1H-pyrrol-2-yl)(4-(3,5-difluorophenyl)-2-methylpiperazin-1-yl)methanone]
> 1 µM	10 to 1000 nM	Cc1c(CN2CCN(c3ccccc3Cl)CC2)cc(C(=O)N2CCN(c3cccc(C#N)c3)CC2)n1C [Example I-110, 3-(4-(4-((4-(2-chlorophenyl)piperazin-1-yl)methyl)-1,5-dimethyl-1H-pyrrole-2-carbonyl)piperazin-1-yl)benzonitrile]
> 3 µM	10 to 1000 nM	Cc1cccc(N2CCN(C(=O)c3cc(CN4CCN(c5ccccc5Cl)CC4)c(C#N)n3C)CC2)n1 [Example I-38]
> 10 µM	1000 to 3000 nM	Cc1c(CN2CCN(c3ccccc3Cl)CC2)cc(C(=O)N2CCN(c3ccc(F)c(Cl)c3)CC2)n1C [Example I-82, (4-(3-chloro-4-fluorophenyl)piperazin-1-yl)(4-((4-(2-chlorophenyl)piperazin-1-yl)methyl)-1,5-dimethyl-1H-pyrrol-2-yl)methanone]
> 10 µM	1000 to 3000 nM	C[C@H]1CN(c2cc(F)c(F)c(F)c2)CCN1C(=O)c1cc(CN2CCN(c3ccccc3Cl)CC2)cn1C [Example I-88, (S)-(4-((4-(2-chlorophenyl)piperazin-1-yl)methyl)-1-methyl-1H-pyrrol-2-yl)(2-methyl-4-(3,4,5-trifluorophenyl)piperazin-1-yl)methanone]
> 10 µM	3000 to 10000 nM	Cc1c(CN2CCN(c3ccccc3Cl)CC2)cc(C(=O)N2CCN(c3cc(F)c(F)c(F)c3)C[C@@H]2C)n1C [Example I-89, (S)-(4-((4-(2-Chlorophenyl)piperazin-1-yl)methyl)-1,5-dimethyl-1H-pyrrol-2-yl)(2-methyl-4-(3,4,5-trifluorophenyl)piperazin-1-yl)methanone]
> 3 µM	10 to 1000 nM	Cc1c(CN2CCN(c3ccccc3C#N)CC2)cc(C(=O)N2CCN(c3cccc(C#N)c3)C[C@@H]2C)n1C [Example I-66]
> 10 µM	3000 to 10000 nM	Cn1cc(CN2CCN(c3ccccc3C#N)CC2)cc1C(=O)N1CCN(c2nnccc2C#N)CC1 [Example I-17]
> 1 µM	10 to 1000 nM	Cc1c(CN2CCN(c3ccccc3Cl)CC2)cc(C(=O)N2CCN(c3ccc(F)c(F)c3)C[C@@H]2C)n1C [Example I-116, (S)-(4-((4-(2-chlorophenyl)piperazin-1-yl)methyl)-1,5-dimethyl-1H-pyrrol-2-yl)(4-(3,4-difluorophenyl)-2-methylpiperazin-1-yl)methanone]
> 3 µM	10 to 1000 nM	Cc1c(CN2CCN(c3ccccc3Cl)CC2)cc(C(=O)N2CCN(c3cccc(F)c3C#N)CC2)n1C [Example I-107, 2-(4-(4-((4-(2-chlorophenyl)piperazin-1-yl)methyl)-1,5-dimethyl-1H-pyrrole-2-carbonyl)piperazin-1-yl)-6-fluorobenzonitrile]
> 10 µM	1000 to 3000 nM	COCCn1cc(CN2CCN(c3ccccc3C#N)CC2)cc1C(=O)N1CCN(c2ccccc2C#N)CC1 [Example I-151]
> 10 µM	3000 to 10000 nM	Cc1c(CN2CCN(c3ccccc3CCCN)CC2)cc(C(=O)N2CCN(c3ccccc3)C[C@@H]2C)n1C [Example I-24, (S)-(4-((4-(2-(3-aminopropyl)phenyl)piperazin-1-yl)methyl)-1,5-dimethyl-1H-pyrrol-2-yl)(2-methyl-4-phenylpiperazin-1-yl)methanone ditrifluoroacetate salt]
